Assay results taken from the supplement of paper PMC8671470.

How the values were obtained:
Settings in all cases: 72 h
[1] = tested on: myeloid leukemia patient primary cells Pat.4; test: area under dose-response curve (viability, 1 nM-10 uM) (fraction (0-1)); higher = more sensitive
Experimental: (§1)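 AUC (0–1, higher = more sensitive) of the 5-point dose–response (1 nM–10 µM, 72 h, CellTiter-Glo) in primary AML/CML patient mononuclear cells. 0.030103 is the floor for inactive compounds.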

[2] = tested on: myeloid leukemia patient primary cells Pat.9; test: as above
Experimental: as §1

[3] = tested on: myeloid leukemia patient primary cells Pat.11; test: as above
Experimental: as §1

[4] = tested on: myeloid leukemia patient primary cells Pat.6; test: as above
Experimental: as §1

[5] = tested on: myeloid leukemia patient primary cells Pat.14; test: as above
Experimental: as §1

[6] = tested on: myeloid leukemia patient primary cells Pat.8; test: as above
Experimental: as §1

[7] = tested on: myeloid leukemia patient primary cells Pat.13; test: as above
Experimental: as §1

[8] = tested on: myeloid leukemia patient primary cells Pat.3; test: as above
Experimental: as §1

[9] = tested on: myeloid leukemia patient primary cells Pat.2; test: as above
Experimental: as §1

[10] = tested on: myeloid leukemia patient primary cells Pat.10; test: as above
Experimental: as §1

[11] = tested on: myeloid leukemia patient primary cells Pat.15; test: as above
Experimental: as §1

[12] = tested on: myeloid leukemia patient primary cells Pat.1; test: as above
Experimental: as §1

[13] = tested on: myeloid leukemia patient primary cells Pat.7; test: as above
Experimental: as §1

[14] = tested on: myeloid leukemia patient primary cells Pat.5; test: as above
Experimental: as §1

[15] = tested on: myeloid leukemia patient primary cells Pat.12; test: as above
Experimental: as §1

BV-173 = test: cell viability (% survival relative to DMSO control); higher = less cytotoxic
Experimental: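 8x8 drug-combination matrices (0–5000 nM; rosiglitazone and lestaurtinib 0–1000 nM) were run in BV-173 cells for 72 h with CellTiter-Glo read-out. Survival is normalised to DMSO and 10 µM bortezomib and clipped at 100%.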

O=C(c1c2ccccc2cc2ccccc12)N1CCC(N2CCC[C@@H](C(=O)N3CCOCC3)C2)CC1
Settings | area under dose-response curve
[1] | < 0.0301
[2] | 0.327
[3] | < 0.0301
[4] | < 0.0301
[5] | < 0.0301
[6] | < 0.0301
[7] | < 0.0301
[8] | < 0.0301
[9] | < 0.0301
[10] | < 0.0301
[11] | < 0.0301
[12] | < 0.0301
[13] | 0.312
[14] | 0.309
[15] | < 0.0301

c1ccc2c(c1)SCc1c-2[nH]c2ccccc12
Settings | area under dose-response curve
[1] | 0.192
[2] | 0.397
[3] | 0.148
[4] | 0.14
[5] | 0.403
[6] | 0.139
[7] | 0.176
[8] | 0.37
[9] | 0.142
[10] | 0.505
[11] | 0.22
[12] | 0.132
[13] | 0.259
[14] | 0.787
[15] | 0.165

CCC(CC#N)OC(=O)N[C@@H](C)c1cccc(NC(=O)Nc2ccc(-c3cnco3)c(OC)c2)c1 (stereo in doubt) [AVN-944]
Settings | area under dose-response curve
[1] | 0.162
[2] | 0.438
[5] | 0.167
[7] | 0.162
[8] | 0.44
[9] | < 0.0301
[10] | 0.508
[13] | 0.545
[14] | 0.641
[15] | < 0.0301

CN(C)C(=O)n1nnnc1Cc1ccc(-c2ccccc2)cc1 + CCOC(=O)N1c2ccc(C(F)(F)F)cc2[C@@H](N(Cc2cc(C(F)(F)F)cc(C(F)(F)F)c2)C(=O)OC)C[C@H]1CC [Torcetrapib]
cell viability [%], BV-173
Settings | drug1 concentration 5 nM | drug1 concentration 10 nM | drug1 concentration 50 nM | drug1 concentration 100 nM | drug1 concentration 500 nM | drug1 concentration 1000 nM | drug1 concentration 5000 nM
drug2 concentration 5 nM | > 100 | > 100 | > 100 | 83.6 | 86.7 | 61 | -1.29
drug2 concentration 10 nM | 79.6 | 99.9 | 97.9 | 77.9 | 64.3 | 67 | -0.12
drug2 concentration 50 nM | 70.5 | 94.4 | 69.5 | 70.6 | 61 | 53.7 | 1.13
drug2 concentration 100 nM | 62.8 | 69 | 80.1 | 87.3 | > 100 | 45.6 | -0.25
drug2 concentration 500 nM | 73.5 | > 100 | > 100 | 83.8 | 95.5 | 86 | 0.45
drug2 concentration 1000 nM | 80.8 | 68.8 | 94.8 | 94.5 | > 100 | 71.3 | 1.28
drug2 concentration 5000 nM | 61.4 | 64.7 | 62 | 69.6 | 77.6 | 24.2 | 0

Oc1ncc(F)c(O)n1 [5-fluorouracil]
Settings | area under dose-response curve
[1] | 0.0407
[2] | 0.0717
[3] | < 0.0301
[4] | < 0.0301
[5] | < 0.0301
[6] | < 0.0301
[7] | < 0.0301
[8] | 0.0441
[9] | < 0.0301
[10] | 0.0668
[11] | < 0.0301
[12] | < 0.0301
[13] | 0.0322
[14] | 0.188
[15] | < 0.0301

Oc1ncc(F)c(O)n1 [5-fluorouracil] + C[C@]12O[C@H](C[C@]1(O)CO)n1c3ccccc3c3c4c(c5c6ccccc6n2c5c31)CNC4=O [Lestaurtinib]
cell viability [%], BV-173
Settings | drug1 concentration 5 nM | drug1 concentration 10 nM | drug1 concentration 50 nM | drug1 concentration 100 nM | drug1 concentration 500 nM | drug1 concentration 1000 nM | drug1 concentration 5000 nM
drug2 concentration 1 nM | > 100 | > 100 | > 100 | > 100 | 86.1 | 79.2 | 47.6
drug2 concentration 5 nM | > 100 | 81.2 | 85.7 | 86.6 | > 100 | 82.8 | 69.9
drug2 concentration 10 nM | 93 | 95.9 | 87.7 | > 100 | 72.4 | 74.2 | 71.8
drug2 concentration 50 nM | 60.2 | 59.9 | 50 | 68.2 | 58.5 | 59.2 | 35
drug2 concentration 100 nM | 68 | 43.6 | 46.5 | 47.5 | 40.6 | 44.3 | 20.2
drug2 concentration 500 nM | 18.1 | 36.8 | 20.9 | 25.8 | 20.4 | 20.7 | 9.65
drug2 concentration 1000 nM | 19.6 | 37.9 | 24.6 | 30.9 | 42.5 | 27.9 | 8.5

CN(C)CCNC(=O)c1cccn2c(=O)c3cc4ccccc4cc3nc12 [Bmh-21]
Settings | area under dose-response curve
[1] | 0.36
[2] | 0.396
[3] | 0.31
[4] | 0.199
[5] | 0.254
[6] | 0.121
[7] | 0.338
[8] | 0.351
[9] | 0.0874
[10] | 0.263
[11] | 0.386
[12] | 0.368
[13] | 0.318
[14] | 0.372
[15] | 0.233

CN(C)CCNC(=O)c1cccn2c(=O)c3cc4ccccc4cc3nc12 [Bmh-21] + O=C(O)CC[N+](=O)[O-] [3-nitropropionic acid]
cell viability [%], BV-173
Settings | drug1 concentration 5 nM | drug1 concentration 10 nM | drug1 concentration 50 nM | drug1 concentration 100 nM | drug1 concentration 500 nM | drug1 concentration 1000 nM | drug1 concentration 5000 nM
drug2 concentration 5 nM | > 100 | > 100 | > 100 | 95.6 | 6.08 | 1.91 | 0.1
drug2 concentration 10 nM | 94.1 | > 100 | > 100 | > 100 | 19.6 | 3.29 | -1.01
drug2 concentration 50 nM | > 100 | 79.4 | 83.4 | > 100 | 0.68 | 35.3 | -0.78
drug2 concentration 100 nM | 82.9 | > 100 | > 100 | 94.8 | 2.69 | -0.53 | 0.59
drug2 concentration 500 nM | > 100 | 86.6 | 88.3 | > 100 | 38.2 | 68 | -0.99
drug2 concentration 1000 nM | 92 | > 100 | > 100 | 66.9 | 10.4 | -1.13 | 0.46
drug2 concentration 5000 nM | > 100 | > 100 | > 100 | 99.5 | 0.21 | -1.32 | 0
